{"source": "patent US9408891B2", "about": "“Methods of using gelsolin to treat or prevent bacterial sepsis” (priority 2003, dated 2016)", "key": {"human platelets": {"test_system": "human platelets", "assay": "Collagen-induced aggregation of gel-filtered platelets", "type": "cell-based", "conditions": "collagen 10 μg/ml", "protocol": "To isolate human platelets, blood from healthy volunteers was collected in acid-citrate dextrose. Platelet-rich plasma obtained after centrifugation (15 minutes, 110×g) at room temperature, was supplemented with apyrase (0.5 U/ml) (Sigma-Aldrich) to degrade excess nucleotides. Platelets were sedimented by centrifugation (10 minutes, 1000×g), suspended in buffer A (139 mM NaCl, 2.8 mM KCl, 0.8 mM MgCl2, 0.8 mM KH2PO4, 8.9 mM NaHCO3, 10 mM HEPES, 5.6 mM glucose, 0.3% albumin, pH 7.35) and filtered on a 50 ml column of Sepharose 2B to obtain gel-filtered platelets (GFP).\nPlatelet aggregation was initiated by adding collagen (10 μg/ml) (Chrono-Log Corp., Havertown, Pa.). Platelet aggregation was monitored using a Chronolog Lumi-Aggregometer (Chrono-Log Corp.). Changes in light transmission were recorded for 10 minutes, using a PowerLab/200 instrument and MacLab Chart program Version 3.2. When required before activation, the platelet suspension was reacted with LPS, or LPS-preincubated with the SEQ ID No:1 peptide (QRLFQVKGRR)."}, "rat primary astrocytes": {"test_system": "rat primary astrocytes", "assay": "LPS-induced actin cytoskeleton disassembly, phalloidin staining, astrocytes", "type": "cell-based", "conditions": "LPS 10 μg/ml, 10 min", "text": "In light of the findings in the previous Examples, and using the materials prepared in above, the effect of the gelsolin binding by LPS was studied to determine the effect on cellular responses in vitro. Cell cultures of human aortic endothelial cells (HAEC) and rat primary astrocytes were used to evaluate the effect of LPS on actin. Both of these cell types have mCD14 (membrane bound C14) and TLR LPS receptors (Faure, et al., J. Biol. Chem. 275:11058-11063 (2000); Bsibsi, et al., J. Neuropathol. Exp. Neurol. 61:1013-1021 (2002); Bowman, et al., Glia 43:281-291 (2003)).\nRat primary astrocytes were obtained from prenatal rats and maintained for 14 days in culture before use. Embryos (E17-E19) were removed by caesarian section from a Sprague-Dawley rat and the hippocampi were surgically removed. The tissue was digested in trypsin/DNAse at 37° C., centrifuged (1000×5 min) and filtered to derive suspensions from each pup. […]\nHAECs and astrocytes cultures were incubated for 10 minutes in medium containing 10 μg/ml LPS alone, or LPS that had been pre-incubated with 0.16 mg/ml of human gelsolin. […] Location of transcription factor nuclear factor-kappaB (NF-κB) was observed using a monoclonal antibody to NF-κB (Molecular Probes), and cell nuclei were detected by counter-staining with 4′, 6-diamidino-2-phenylindole dihydrochloride (DAPI) (Sigma)."}, "[1]": {"test_system": "NF-κB translocation in rat primary astrocytes", "assay": "NF-κB translocation to the nucleus in astrocytes", "type": "cell-based", "conditions": "astrocytes, 2 hour; LPS 2 μM or TNF-α 10 ng/ml", "protocol": "Rat primary astrocytes were obtained from prenatal rats and maintained for 14 days in culture before use. Embryos (E17-E19) were removed by caesarian section from a Sprague-Dawley rat and the hippocampi were surgically removed. The tissue was digested in trypsin/DNAse at 37° C., centrifuged (1000×5 min) and filtered to derive suspensions from each pup. Cells were grown in an incubator at 37° C. and 5% CO2 in DMEM (Dulbecco's Modified Eagle's Medium; BioWhittaker/Cambrex BioScience, East Rutherford, N.J.), supplemented with Ham's F12 (Sigma-Aldrich, St. Louis, Mo.) and 5% fetal bovine serum (FBS) (Hyclone, Logan, Utah) for 7 days, followed by an additional 7 days in Neurobasal medium (Gibco, Grand Island, N.Y.) also supplemented with 5% FBS, 2 mM l-glutamine, 50 μg/ml streptomycin and 50 U/ml penicillin. In each experiment, the medium was changed to serum-free at 6-12 hours prior to addition of LPS, TNF-α, or gelsolin.\nHAECs and astrocytes cultures were incubated for 10 minutes in medium containing 10 μg/ml LPS alone, or LPS that had been pre-incubated with 0.16 mg/ml of human gelsolin. Cultures were fixed with ice-cold methanol and immunostained for F-actin with fluorescein isothiocyanate (FITC)-labeled phalloidin (Molecular Probes, Eugene, Oreg.). In astrocyte cultures, NF-κB translocation was manipulated by a 2 hour incubation in serum-free medium containing one of the following: 10 ng/ml TNF-α, 10 μg/ml LPS alone, or LPS that had been preincubated with 0.16 mg/ml human gelsolin. Location of transcription factor nuclear factor-kappaB (NF-κB) was observed using a monoclonal antibody to NF-κB (Molecular Probes), and cell nuclei were detected by counter-staining with 4′, 6-diamidino-2-phenylindole dihydrochloride (DAPI) (Sigma)."}, "[2]": {"target": "T1, Gc-globulin (vitamin D-binding protein) (Homo sapiens, UniProt P02774)", "T1 sequence (P02774 17-474)": "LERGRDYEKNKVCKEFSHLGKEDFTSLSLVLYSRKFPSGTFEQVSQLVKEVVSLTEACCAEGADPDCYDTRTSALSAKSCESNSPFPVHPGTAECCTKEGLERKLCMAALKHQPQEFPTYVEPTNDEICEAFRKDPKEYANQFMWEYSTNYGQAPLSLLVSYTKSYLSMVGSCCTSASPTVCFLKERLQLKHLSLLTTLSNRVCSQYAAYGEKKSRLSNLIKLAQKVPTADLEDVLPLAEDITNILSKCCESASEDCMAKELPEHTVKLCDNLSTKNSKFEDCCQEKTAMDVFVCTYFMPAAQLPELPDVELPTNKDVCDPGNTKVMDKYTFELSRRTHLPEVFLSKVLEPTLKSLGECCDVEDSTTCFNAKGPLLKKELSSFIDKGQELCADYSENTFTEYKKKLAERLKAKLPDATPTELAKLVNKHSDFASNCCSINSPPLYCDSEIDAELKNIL", "assay": "Actin-sequestering activity of Gc-globulin", "type": "biochemical", "conditions": "LPS at least up to 100 μM"}, "[3]": {"assay": "Neutron scattering of LPS with gelsolin peptide", "type": "physicochemical", "conditions": "preliminary neutron scattering, cylindrical structure", "text": "The molecular structure of LPS and its complexes with proteins can be measured at nm resolution by X-ray and neutron scattering, as well as by electron and atomic force microscopy.\nAt present, the calculated diameter (36 nm) is greater than that which has been previously reported for pure LPS micelles, and the difference in size may reflect another structural feature. In additional experiments with more variations in gelsolin/LPS or peptide, LPS ratios will reveal if there are significant changes in LPS particle structure when these peptides bind LPS."}, "[4]": {"target": "T2, PBP10 (PIP2-binding site of gelsolin) (Homo sapiens, UniProt P06396)", "T2 construct": "made in house; host or cells: solid phase peptide synthesis", "assay": "Rhodamine-B fluorescence change of gelsolin peptide PBP10 after adding lipids", "conditions": "2 μM peptide, buffer A pH 7.0, 15 min", "protocol": "Therefore, to determine changes of gelsolin OD at 280 nm, different amounts of LPS, LPA and PS were added to recombinant human gelsolin (rhGLS) solutions and OD emission spectra were recorded using spectrophotometer Genesys 6 (Thermo-Spectronic, USA).\nInteraction of LPS and gelsolin was examined using rhodamine B- and pyrene-labeled SEQ ID No:1 (QRLFQVKGRR). The effect of LPS on gelsolin was determined in terms of the rhodamine-B fluorescent changes of PBP10 peptide in the presence of different lipids (FIG. 1C); and the fluorescence emission spectra of pyrene-labeled SEQ ID No:1 (2 μM) in the presence of LPS from Escherichia coli (1.2 μM), PIP2 (0.82 μM) and LPA (0.82 μM) (FIG. 1D) The results using the pyrene-derivatized gelsolin peptide confirmed the LPS induced clustering of the peptide with resulting excimer fluorescence of the pyrene group, which was evident as a large increase in fluorescence emission at 480 nm.\nThe tested gelsolin concentration was 50 nM; LTA ranged from 0-50 μM; Pyrene-F-actin was 0.3 μM. Recording changes in fluorescently-labeled (rhodamine B-labeled) gelsolin peptide PBP10 (10 μM), indicates a specific interaction between gelsolin and LTA."}}, "note": "Entries after “also recorded” stand apart in the source; their conditions may differ.", "data": [{"substance": "lipopolysaccharide [LPS]", "values": [{"measurement": "effect of LPS alone on collagen-induced platelet aggregation and secretion", "setting": "human platelets", "value": "strongly inhibited"}, {"measurement": "effect of LPS alone on actin cytoskeleton", "setting": "rat primary astrocytes", "value": "rapidly induced the disassembly of the actin cytoskeleton; also recorded: disassembly of the actin cytoskeleton was readily induced; also recorded: rapidly induced disassembly of the actin cytoskeleton"}, {"measurement": "induction of NF-κB translocation to the nucleus", "setting": "[1]", "value": "caused NF-κB translocation to the nucleoplasm; also recorded: resulted in its translocation to the nucleoplasm"}, {"measurement": "effect on actin-sequestering activity of Gc-globulin", "setting": "[2]", "value": "unaffected"}, {"measurement": "calculated diameter", "setting": "[3]", "value": 36, "unit": "nm"}, {"measurement": "fluorescence quenching / change of rhodamine-B peptide", "setting": "[4]", "value": "induced identical concentration-dependent fluorescence quenching"}]}]}
